The supplement of paper PMC11061612

Columns and labels:
[1] = test system: BALL-1 (B-Lymphoblastic Leukemia); assay: Bliss excess, mean over the matrix (fraction); higher = more synergy
Summary of the method: (§1)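 Cell lines grown in DMEM/F12 or RPMI with 10% FBS were plated in 1536-well plates and held 24 hours at 37°C, 5% CO2 before 72 hours of exposure to two-drug dose matrices, with DMSO typically at 0.2%. CellTiter-Glo 2.0 luminescence gave viability, which was converted to inhibition. Vehicle wells were set to 0 and blank wells to 1. Combination Emax is the second-highest inhibition in the matrix, and Bliss excess is the observed combination effect minus the expected EA + EB − EA·EB, where EA and EB are the single-agent effects.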

[2] = test system: NCI-H1563 (Lung Adenocarcinoma); assay: as above
Summary of the method: as §1

[3] = test system: AN3-CA (Endometrial Carcinoma); assay: as above
Summary of the method: as §1

786-0 (Kidney Carcinoma) = assay: as above
Summary of the method: as §1

[4] = test system: LOUCY (T-Lymphoblastic Leukemia); assay: as above
Summary of the method: as §1

[5] = test system: PC-14 (Lung Adenocarcinoma); assay: as above
Summary of the method: as §1

[6] = test system: Caov-3 (Ovarian Carcinoma); assay: as above
Summary of the method: as §1

RT4 (Bladder Carcinoma) = assay: as above
Summary of the method: as §1

[7] = test system: NKM-1 (Acute Myeloid Leukemia); assay: as above
Summary of the method: as §1

[8] = test system: RMG-I (Ovarian Carcinoma); assay: as above
Summary of the method: as §1

[9] = test system: NCI-H810 (Non-Small Cell Lung Carcinoma); assay: as above
Summary of the method: as §1

ES-2 (Ovarian Carcinoma) = assay: as above
Summary of the method: as §1

[10] = test system: SW684 (Other Solid Carcinomas); assay: as above
Summary of the method: as §1

[11] = test system: PANC-02-03 (Pancreatic Carcinoma); assay: as above
Summary of the method: as §1

[12] = test system: RERF-LC-KJ (Lung Adenocarcinoma); assay: as above
Summary of the method: as §1

[13] = test system: SNU-175 (Colorectal Carcinoma); assay: as above
Summary of the method: as §1

[14] = test system: HTC-C3 (Thyroid Gland Carcinoma); assay: as above
Summary of the method: as §1

[15] = test system: OCI-AML5 (Acute Myeloid Leukemia); assay: as above
Summary of the method: as §1

[16] = test system: NKM-1 (Acute Myeloid Leukemia); assay: combination Emax (second highest fraction inhibited in the dose matrix, 72 h); higher = more inhibition; extreme values may be limits of the assay
Summary of the method: as §1

[17] = test system: RL95-2 (Endometrial Carcinoma); assay: as above
Summary of the method: as §1
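Wherever Bliss excess, mean over the matrix is given: after 72 h of two-drug dosing.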

| Structure (SMILES) | Bliss excess [1] | Bliss excess [2] | Bliss excess [3] | Bliss excess (786-0 (Kidney Carcinoma)) | Bliss excess [4] | Bliss excess [5] | Bliss excess [6] | Bliss excess (RT4 (Bladder Carcinoma)) | Bliss excess [7] | Bliss excess [8] | Bliss excess [9] | Bliss excess (ES-2 (Ovarian Carcinoma)) | Bliss excess [10] | Bliss excess [11] | Bliss excess [12] | Bliss excess [13] | Bliss excess [14] | Bliss excess [15] | combination Emax [16] | combination Emax [17] |
| --- | --- | --- | --- | --- | --- | --- | --- | --- | --- | --- | --- | --- | --- | --- | --- | --- | --- | --- | --- | --- |
| Cc1cc2ncnn2cc1Nc1ncc2c(n1)n(C1CCOCC1)c(=O)n2C [AZD7648] + O=C(c1cc(Cc2n[nH]c(=O)c3ccccc23)ccc1F)N1CCN(C(=O)C2CC2)CC1 [Olaparib] (first compound max 10 µM, 7x7, partner max 10 µM) | 0.0624 | -0.0487 | -0.0738 | -0.0162 | -0.0388 | -0.0245 | -0.0336 | 0.0016 | 0.0104 | -0.0685 | -0.0482 | -0.0354 | -0.0452 | -0.0411 | -0.0546 | -0.025 | -0.0224 | 0.0077 | 0.73 | 0.264 |
| CC1(C)CCC(CN2CCN(c3ccc(C(=O)NS(=O)(=O)c4ccc(NCC5CCOCC5)c([N+](=O)[O-])c4)c(Oc4cnc5[nH]ccc5c4)c3)CC2)=C(c2ccc(Cl)cc2)C1 [Venetoclax] + C1CN(CCC1(C(=O)N[C@@H](CCO)C2=CC=C(C=C2)Cl)N)C3=NC=NC4=C3C=CN4 [Capivasertib] (first compound max 1 µM, 7x7, partner max 3 µM) | 0.0213 | -0.0411 | 0.0482 | -0.0428 | 0.104 | -0.038 | -0.0458 | -0.0469 | 0.0228 | -0.0823 | -0.0663 | -0.0389 | -0.0688 | -0.0742 | -0.0808 | -0.06 | -0.0418 | -0.0057 | 1 | 0.494 |
| CC1(C)CCC(CN2CCN(c3ccc(C(=O)NS(=O)(=O)c4ccc(NCC5CCOCC5)c([N+](=O)[O-])c4)c(Oc4cnc5[nH]ccc5c4)c3)CC2)=C(c2ccc(Cl)cc2)C1 [Venetoclax] + Cn1cnc2c(F)c(Nc3ccc(Br)cc3Cl)c(C(=O)NOCCO)cc21 [Selumetinib] (first compound max 1 µM, 7x7, partner max 3 µM) | -0.0026 | 0.0042 | -0.0076 | -0.0347 | 0.0179 | -0.0229 | -0.0295 | -0.0521 | 0.0456 | -0.0727 | -0.052 | -0.0367 | -0.0631 | -0.0386 | -0.0265 | -0.0157 | -0.049 | 0.111 | 0.975 | 0.332 |
| CN(CCO)CC[C@H](CSc1ccccc1)Nc1ccc(S(=O)(=O)NC(=O)c2ccc(N3CCC([C@@H](O)c4ccccc4-c4ccc(Cl)cc4)CC3)cc2)cc1S(=O)(=O)C(F)(F)F [AZD4320] + CN(C)CCCOc1ccc(-c2ccc3ncc4c(c3c2)n(C2CCOCC2)c(=O)n4C)cn1 [AZD0156] (first compound max 1 µM, 7x7, partner max 1 µM) | -0.0185 | -0.0496 | -0.0153 | -0.0503 | -0.006 | -0.019 | -0.0198 | -0.0057 | -0.0871 | -0.048 | -0.0328 | -0.0259 | -0.0641 | -0.0553 | -0.0413 | -0.0219 | -0.0185 | -0.0015 | 1 | 0.124 |
| Cc1cc2ncnn2cc1Nc1ncc2c(n1)n(C1CCOCC1)c(=O)n2C [AZD7648] + C[C@@H]1COCCN1C2=NC(=NC(=C2)C3(CC3)[S@](=N)(=O)C)C4=C5C=CNC5=NC=C4 [AZD6738] (first compound max 10 µM, 7x7, partner max 10 µM) | 0.0025 | 0.0367 | 0.0515 | 0 | 0.0271 | 0.0031 | 0.0433 | 0.0354 | -0.0051 | 0.0557 | -0.0367 | 0.0572 | -0.0272 | 0.0561 | 0.0386 | -0.0374 | 0.0229 | -0.0209 | 0.839 | 0.592 |
| COc1cccc(OCCCN)c1-c1cc(Nc2cnc(C#N)cn2)n[nH]1 [Prexasertib] + CCc1c2c(nc3ccc(O)cc13)-c1cc3c(c(=O)n1C2)COC(=O)[C@]3(O)CC [SN-38] (first compound max 1 µM, 7x7, partner max 0.3 µM) | -0.016 | -0.0111 | 0.0972 | -0.0368 | 0.0103 | -0.0169 | -0.0539 | -0.0055 | -0.0554 | -0.102 | 0.0967 | -0.0222 | 0.0036 | 0.0098 | 0.0513 | -0.0298 | 0.0844 | -0.0197 | 0.938 | 0.979 |
| CC1(C)CCC(CN2CCN(c3ccc(C(=O)NS(=O)(=O)c4ccc(NCC5CCOCC5)c([N+](=O)[O-])c4)c(Oc4cnc5[nH]ccc5c4)c3)CC2)=C(c2ccc(Cl)cc2)C1 [Venetoclax] + CN(C)CCCOc1ccc(-c2ccc3ncc4c(c3c2)n(C2CCOCC2)c(=O)n4C)cn1 [AZD0156] (first compound max 1 µM, 7x7, partner max 1 µM) | 0.031 | -0.0099 | -0.06 | -0.0327 | 0.0594 | 0.0043 | -0.0386 | -0.0259 | -0.0963 | -0.016 | -0.0485 | 0.0069 | -0.0333 | -0.0541 | 0.013 | -0.0511 | -0.0378 | -0.0618 | 0.959 | 0.135 |
| COc1cccc(OCCCN)c1-c1cc(Nc2cnc(C#N)cn2)n[nH]1 [Prexasertib] + C[C@@H]1COCCN1C2=NC(=NC(=C2)C3(CC3)[S@](=N)(=O)C)C4=C5C=CNC5=NC=C4 [AZD6738] (first compound max 1 µM, 7x7, partner max 10 µM) | -0.001 | -0.0878 | -0.0308 | -0.0219 | -0.0009 | -0.047 | -0.0647 | 0.0645 | -0.0583 | 0.0108 | -0.0519 | -0.0375 | -0.018 | 0.0434 | -0.0002 | 0.0641 | -0.0034 | -0.0205 | 0.938 | 0.898 |
| CN(CCO)CC[C@H](CSc1ccccc1)Nc1ccc(S(=O)(=O)NC(=O)c2ccc(N3CCC([C@@H](O)c4ccccc4-c4ccc(Cl)cc4)CC3)cc2)cc1S(=O)(=O)C(F)(F)F [AZD4320] + C[C@@H]1COCCN1C2=NC(=NC(=C2)C3(CC3)[S@](=N)(=O)C)C4=C5C=CNC5=NC=C4 [AZD6738] (first compound max 1 µM, 7x7, partner max 10 µM) | 0.0096 | 0.0051 | -0.0091 | -0.0263 | -0.0092 | -0.0133 | -0.0186 | 0.0064 | 0.0067 | -0.13 | -0.0762 | -0.0061 | -0.0548 | -0.0584 | -0.0377 | 0.0023 | -0.0305 | 0.0284 | 1 | 0.751 |
